This note sets out measurements from patent US9980943B2, “Methods of treating muscular dystrophy” (BOARD OF REGENTS OF THE NEVADA SYSTEM OF HIGHER EDUCATION, …, priority 2013, dated 2018).

Structures are written as SMILES. Where two headings read alike, the source gives them in different places.

The assay deals with α7 integrin (LacZ reporter in α7LacZ+/− myoblasts). Kind of assay: qHTS of the LOPAC library and MLSMR (online screen, α7LacZ+/− myoblasts). The note with it: for activation at 0.307 µM / activation at 1.53 µM / activation at 7.66 µM / activation at 38.3 µM / Emax / EC50: Mus musculus, Myoblast; for activation at 0.307 µM: read-out: Activity at 0.307 uM [%] **; for activation at 1.53 µM: read-out: Activity at 1.530 uM [%] **; for activation at 7.66 µM: read-out: Activity at 7.660 uM [%] **; for activation at 38.3 µM: read-out: Activity at 38.30uM [%] **; for EC50: read-out: Fit LogAC50 (converted); for Score: Table 8 Compound data. On the technique in general: In qHTS, concentration-response curves come from the screen itself.

Where [1] appears, read: 48 h, read-out: Fit Infinite Activity [%].

As for `COCCSc1ccccc1C(=O)Nc1cc(C)cc(C)c1` [Compound 22], the EC50 is 4.47 µM. Moreover, for the setting “48 h”, the activation at 0.307 µM turned out to be 0%, the activation at 1.53 µM was 0%, the activation at 7.66 µM worked out at 78.3% and the activation at 38.3 µM was found to be 82.9%. For the same compound, the Emax under setting [1] turned out to be 83.1%.

Take `O=C(Nc1ccc(Cl)cc1N1CCOCC1)C1CCCCC1` [Compound 53]: the EC50 is 7.08 µM. For the same compound, where the note is “48 h”, the activation at 0.307 µM came out at 0%, the activation at 1.53 µM is 28.1%, the activation at 7.66 µM came to 71.9% and the activation at 38.3 µM was determined as 119%. Moreover, under setting [1], the Emax came to 152%.

As for `COc1ccccc1C(=O)NCC(=O)/N=N/c1c(O)n(C(C)C)c2ccccc12` [Compound 139], under “48 h”, the activation at 0.307 µM worked out at 15.2%, the activation at 1.53 µM worked out at 14.6%, the activation at 7.66 µM was determined as 25% and the activation at 38.3 µM is 81.7%. Further, the Emax under setting [1] is 82%. Besides, the Emax (read-out: Max Response [%]) amounted to 81.7%.

Consider `COc1cc(/C=C/CN2CCN(Cc3ccc(C)o3)C(CCO)C2)ccc1O` (centres unmarked) [Compound 42], for which the EC50 is 14.1 µM. Moreover, for the setting “48 h”, the activation at 0.307 µM was determined as 20.1%, the activation at 1.53 µM was determined as 0%, the activation at 7.66 µM came out at 32.1% and the activation at 38.3 µM amounted to 481%. The Emax under setting [1] was 485%.

Regarding `CC(C)NC(=O)CN1CCN(C(=O)CCl)CC1` [Compound 62], the EC50 was 7.08 µM. Further, where the note is “48 h”, the activation at 0.307 µM is -21.4%, the activation at 1.53 µM was -18%, the activation at 7.66 µM was found to be 77.9% and the activation at 38.3 µM is 155%. In addition, the Emax under setting [1] was 162%. For the same compound, the Emax (read-out: Max Response [%]) turned out to be 155%.

Consider `COc1ccc(CNC(=O)COC(=O)CCc2c[nH]c3ccccc23)cc1` [Compound 184], for which the EC50 is 10 µM. Besides, under “48 h”, the activation at 0.307 µM came to 0%, the activation at 1.53 µM is -0.551%, the activation at 7.66 µM worked out at 26% and the activation at 38.3 µM stood at 83.9%. The Emax under setting [1] amounted to 85.5%. In addition, the Emax (read-out: Max Response [%]) is 83.9%.

Take `C[C@H]1CNC(=O)c2c(C(=O)Nc3ccc(CNC(=O)OC(C)(C)C)cc3)ncn21` [Compound 88]: the EC50 is 8.91 µM. Under “48 h”, the activation at 0.307 µM turned out to be 12.6%, the activation at 1.53 µM was found to be 21.8%, the activation at 7.66 µM came to 50.5% and the activation at 38.3 µM stood at 81.8%. The Emax under setting [1] was 98.4%. Further, where the note is “read-out: Max Response [%]”, the Emax turned out to be 81.8%.

Turning to `COc1cc(/C=C2/C(=N)N3C(SC)=NSC3=NC2=O)ccc1OC(=O)c1ccco1` [Compound 30], the EC50 is 3.98 µM. Besides, for the setting “48 h”, the activation at 0.307 µM is -18.3%, the activation at 1.53 µM is -9.07%, the activation at 7.66 µM turned out to be 55.5% and the activation at 38.3 µM is 73.4%. For the same compound, under setting [1], the Emax is 73.6%.

Turning to `CCCOc1nc(SCCC)nc2c1cnn2-c1ccccc1` [Compound 178], where the note is “48 h”, the activation at 0.307 µM was -21.2%, the activation at 1.53 µM is -11.3%, the activation at 7.66 µM worked out at 18.9% and the activation at 38.3 µM stood at 64.3%. The Emax under setting [1] was found to be 85.3%. Moreover, under “read-out: Max Response [%]”, the Emax worked out at 64.3%.

Take `COc1ccc(S(=O)(=O)N(NC2=NS(=O)(=O)c3ccccc32)C(=O)C(C)C)cc1` [Compound 37]: the EC50 was 2.51 µM. Where the note is “48 h”, the activation at 0.307 µM is -1.77%, the activation at 1.53 µM was 15.3%, the activation at 7.66 µM was 70.7% and the activation at 38.3 µM was 72.9%. Besides, the Emax under setting [1] is 74.5%.

Take `CC(=O)Nc1ccc(NC(=O)c2cc(=O)c3cc(C)cc(C)c3o2)cc1` [Compound 159]: for the setting “48 h”, the activation at 0.307 µM was -4.25%, the activation at 1.53 µM was -1.91%, the activation at 7.66 µM was 17.1% and the activation at 38.3 µM is 106%. The Emax under setting [1] worked out at 107%. Besides, under “read-out: Max Response [%]”, the Emax was 106%.

Take `COc1ccc(-c2csc3ncnc(N4CCN(c5ccccc5[N+](=O)[O-])CC4)c23)cc1` [Compound 94]: the EC50 is 10 µM and the Score is listed as 43. In addition, where the note is “48 h”, the activation at 0.307 µM worked out at 11.5%, the activation at 1.53 µM is 8.66%, the activation at 7.66 µM came out at 36.5% and the activation at 38.3 µM turned out to be 138%. The Emax under setting [1] is 138%. Further, the Emax (read-out: Max Response [%]) was 138%.

Regarding `COc1ccc(N(CC(=O)NCCC(C)C)C(=O)c2snc(C(=O)NC3CCCCC3)c2N)c(OC)c1` [Compound 98], the EC50 was 10 µM. Where the note is “48 h”, the activation at 0.307 µM is -0.0399%, the activation at 1.53 µM amounted to 0.105%, the activation at 7.66 µM was 28.9% and the activation at 38.3 µM was 125%. Under setting [1], the Emax was found to be 126%. Further, for the setting “read-out: Max Response [%]”, the Emax worked out at 125%.

Turning to `COc1ccc(Cl)cc1NC(=O)CC(=O)Nc1cc(Cl)ccc1OC` [Compound 41], the EC50 was 14.1 µM. Also, under “48 h”, the activation at 0.307 µM was 8.75%, the activation at 1.53 µM turned out to be 9.71%, the activation at 7.66 µM was 34.1% and the activation at 38.3 µM turned out to be 453%. Besides, the Emax under setting [1] amounted to 457%.

Take `Cc1ccc(-c2nc(C)sc2CC(=O)OCC(=O)Nc2c(F)cccc2F)cc1` [Compound 210]: where the note is “48 h”, the activation at 0.307 µM stood at 13.8%, the activation at 1.53 µM is 9.43%, the activation at 7.66 µM stood at 20.3% and the activation at 38.3 µM came to 113%. Moreover, the Emax under setting [1] came to 113%. The Emax (read-out: Max Response [%]) is 113%.

As to `Fc1ccc(-c2ccnn2-c2ccccc2)cc1` [Compound 107], the EC50 was 4.47 µM. Where the note is “48 h”, the activation at 0.307 µM is -17.2%, the activation at 1.53 µM was -3.24%, the activation at 7.66 µM amounted to 46% and the activation at 38.3 µM is 73.3%. Further, under setting [1], the Emax was found to be 76.4%. The Emax (read-out: Max Response [%]) is 73.3%.

`Cc1cccn2c(=O)c3cc(C(=O)NC4CCCCC4)n(C)c3nc12` [Compound 40]: the EC50 is 14.1 µM. Further, for the setting “48 h”, the activation at 0.307 µM is -13.7%, the activation at 1.53 µM was 5.58%, the activation at 7.66 µM was 25.2% and the activation at 38.3 µM came to 427%. For the same compound, the Emax under setting [1] turned out to be 433%.

Regarding `O=S(=O)(NCC(c1ccco1)N1CCOCC1)c1ccc(Cl)cc1` (centres unmarked) [Compound 212], under “48 h”, the activation at 0.307 µM was 11.1%, the activation at 1.53 µM amounted to 7.37%, the activation at 7.66 µM was found to be 15.9% and the activation at 38.3 µM is 128%. The Emax under setting [1] came out at 129%. Besides, the Emax (read-out: Max Response [%]) was found to be 128%.

Take `Oc1c(Br)cc(Br)cc1CNc1cccc2cccnc12` [Compound 110]: the EC50 was 12.6 µM and the Score is listed as 43. Moreover, under “48 h”, the activation at 0.307 µM was -18.9%, the activation at 1.53 µM is -17.9%, the activation at 7.66 µM turned out to be 0% and the activation at 38.3 µM was 161%. Further, under setting [1], the Emax worked out at 163%. The Emax (read-out: Max Response [%]) was found to be 161%.

Consider `CC(C)(C)N/C=C(\C#N)S(=O)(=O)c1ccc(Br)cc1` [Compound 173], for which, for the setting “48 h”, the activation at 0.307 µM was 10.4%, the activation at 1.53 µM is 21.1%, the activation at 7.66 µM was 42.1% and the activation at 38.3 µM came out at 72.3%. In addition, under setting [1], the Emax amounted to 93%. Moreover, the Emax (read-out: Max Response [%]) was determined as 72.3%.

Turning to `CC(=O)Nc1ccc(NC(=O)[C@@H](NC(=O)c2cccc(C)c2)C(C)C)cc1` [Compound 47], the EC50 is 5.62 µM. Under “48 h”, the activation at 0.307 µM was 17.2%, the activation at 1.53 µM came to 32.2%, the activation at 7.66 µM came out at 97.3% and the activation at 38.3 µM was 142%. Further, under setting [1], the Emax amounted to 154%.

On to `NC1=Nc2cccc3cccc1c23` [Compound 117], for which the EC50 is 7.94 µM. Also, for the setting “48 h”, the activation at 0.307 µM stood at 0%, the activation at 1.53 µM came to 5.07%, the activation at 7.66 µM came to 43.6% and the activation at 38.3 µM came out at 82.2%. The Emax under setting [1] stood at 88.8%. Moreover, the Emax (read-out: Max Response [%]) came out at 82.2%.

Consider `CC1(C)Cc2c(cnn2-c2cccc(F)c2)C(NC(=O)CCc2cnccn2)C1` (centres unmarked) [Compound 154], for which, for the setting “48 h”, the activation at 0.307 µM was -36.1%, the activation at 1.53 µM was -14.4%, the activation at 7.66 µM turned out to be 17.9% and the activation at 38.3 µM came out at 38.9%. Also, the Emax under setting [1] amounted to 47.5%. Further, the Emax (read-out: Max Response [%]) was 38.9%.

For `CCNC(=O)CSc1nc(-c2ccc(F)cc2)cs1` [Compound 61], the EC50 is 5.01 µM. In addition, under “48 h”, the activation at 0.307 µM is -0.123%, the activation at 1.53 µM turned out to be 25.8%, the activation at 7.66 µM came to 82.4% and the activation at 38.3 µM came to 126%. For the same compound, the Emax under setting [1] was found to be 136%. In addition, the Emax (read-out: Max Response [%]) was 126%.

Regarding `Cc1ccc(S(=O)(=O)N2CN(CC3CCCO3)c3nc4ccccc4nc32)c(C)c1` (centres unmarked) [Compound 91], the EC50 was 11.2 µM and the Score was 43. Where the note is “48 h”, the activation at 0.307 µM was -19.2%, the activation at 1.53 µM is -13.3%, the activation at 7.66 µM turned out to be 6.57% and the activation at 38.3 µM was 121%. Also, the Emax under setting [1] came out at 122%. For the same compound, the Emax (read-out: Max Response [%]) is 121%.

For the compound `CCc1ccc(N(C(=O)c2snc(C(N)=O)c2N)C(C(=O)NC2CCCC2)c2ccco2)cc1` (centres unmarked) [Compound 17], the EC50 is 2.51 µM. Also, under “48 h”, the activation at 0.307 µM is -18.3%, the activation at 1.53 µM came to 9.37%, the activation at 7.66 µM is 52.7% and the activation at 38.3 µM turned out to be 67.6%. Under setting [1], the Emax is 71.4%.

As to `CN(C)CCNc1ncnc2sc(-c3ccccc3)cc12` [Compound 163], the EC50 was 10 µM. Besides, under “48 h”, the activation at 0.307 µM was -0.804%, the activation at 1.53 µM is -0.389%, the activation at 7.66 µM turned out to be 19.4% and the activation at 38.3 µM turned out to be 78.1%. Moreover, the Emax under setting [1] was determined as 78.3%. Further, under “read-out: Max Response [%]”, the Emax was 78.1%.
